Assay [1] concerns the target Rhesus PDE2A3 (Macaca mulatta, UniProt B3VTJ2). Briefly: PDE2 fluorescence polarization (IMAP FP) inhibition assay, rhesus enzyme. Format: biochemical, rhesus macaque. In a few lines: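 IMAP FP (mP from parallel and perpendicular fluorescence against substrate-only control) was read ≥1 h after adding binding reagent. The preceding 60 min room-temperature reaction contained FAM-cAMP (50 nM) and cGMP (1 uM) in pH 7.2 Tris buffer with MgCl2 and DTT. Enzyme was supernatant of sonicated AD293 cells expressing rhesus PDE2A3; compounds were 3-fold titrated, DMSO 1% final.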

Assay [2] deals with human PDE2A1 (Homo sapiens (Human), UniProt O00408). The assay is described as follows: IMAP FP PDE selectivity panel, human PDE2A1. Format: biochemical. The gist of the method: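 IMAP FP format: substrate 50 nM FAM-cAMP plus 1000 nM cGMP, enzyme (insect-cell GST-tagged human PDE2A1) at ~20% conversion, 60 min reaction at room temperature. Apparent inhibition constants calculated from parallel/perpendicular fluorescence with KM 10,000 nM.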
human PDE2A1, sequence (O00408 other isoform, or with tags, fused parts or gaps): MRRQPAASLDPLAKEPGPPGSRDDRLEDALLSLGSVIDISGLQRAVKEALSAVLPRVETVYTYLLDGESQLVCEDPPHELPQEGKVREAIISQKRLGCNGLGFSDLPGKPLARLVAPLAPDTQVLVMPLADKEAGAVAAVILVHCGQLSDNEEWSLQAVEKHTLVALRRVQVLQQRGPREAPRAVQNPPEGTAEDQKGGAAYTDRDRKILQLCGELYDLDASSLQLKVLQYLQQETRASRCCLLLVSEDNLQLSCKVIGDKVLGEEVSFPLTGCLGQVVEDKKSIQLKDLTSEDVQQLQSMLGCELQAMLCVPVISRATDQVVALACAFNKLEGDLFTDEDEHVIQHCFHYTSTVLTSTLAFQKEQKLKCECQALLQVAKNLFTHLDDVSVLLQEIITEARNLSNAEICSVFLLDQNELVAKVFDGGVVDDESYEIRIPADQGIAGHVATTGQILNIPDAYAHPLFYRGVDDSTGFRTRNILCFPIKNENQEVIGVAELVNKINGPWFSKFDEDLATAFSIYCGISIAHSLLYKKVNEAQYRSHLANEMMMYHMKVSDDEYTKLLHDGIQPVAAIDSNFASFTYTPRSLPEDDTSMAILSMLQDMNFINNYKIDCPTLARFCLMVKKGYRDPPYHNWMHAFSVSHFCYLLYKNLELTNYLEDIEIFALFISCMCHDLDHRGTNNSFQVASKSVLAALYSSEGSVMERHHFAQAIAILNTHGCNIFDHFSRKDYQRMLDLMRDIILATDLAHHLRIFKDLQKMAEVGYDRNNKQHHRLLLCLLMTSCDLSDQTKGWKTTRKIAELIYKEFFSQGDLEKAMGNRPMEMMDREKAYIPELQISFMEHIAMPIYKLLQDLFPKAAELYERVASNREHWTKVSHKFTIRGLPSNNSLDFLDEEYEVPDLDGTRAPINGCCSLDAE

Setting [3] is: Rhesus PDE2, Lab B, read-out: Rhesus PDE2 Ki (nM) - Lab B.
[4] abbreviates: Human PDE2, Lab B, read-out: Human PDE2 Ki (nM) - Lab B.
Where [5] appears, read: Rhesus PDE2, Lab A, read-out: Rhesus PDE2 Ki (nM) - Lab A.
Setting [6] is: Human PDE2, Lab A, read-out: Human PDE2 Ki (nM) - Lab A.

SMILES strings stand for the structures. Read-outs that look alike come from different tables or passages of the source.

Rhesus PDE2A3, sequence (B3VTJ2 1-941): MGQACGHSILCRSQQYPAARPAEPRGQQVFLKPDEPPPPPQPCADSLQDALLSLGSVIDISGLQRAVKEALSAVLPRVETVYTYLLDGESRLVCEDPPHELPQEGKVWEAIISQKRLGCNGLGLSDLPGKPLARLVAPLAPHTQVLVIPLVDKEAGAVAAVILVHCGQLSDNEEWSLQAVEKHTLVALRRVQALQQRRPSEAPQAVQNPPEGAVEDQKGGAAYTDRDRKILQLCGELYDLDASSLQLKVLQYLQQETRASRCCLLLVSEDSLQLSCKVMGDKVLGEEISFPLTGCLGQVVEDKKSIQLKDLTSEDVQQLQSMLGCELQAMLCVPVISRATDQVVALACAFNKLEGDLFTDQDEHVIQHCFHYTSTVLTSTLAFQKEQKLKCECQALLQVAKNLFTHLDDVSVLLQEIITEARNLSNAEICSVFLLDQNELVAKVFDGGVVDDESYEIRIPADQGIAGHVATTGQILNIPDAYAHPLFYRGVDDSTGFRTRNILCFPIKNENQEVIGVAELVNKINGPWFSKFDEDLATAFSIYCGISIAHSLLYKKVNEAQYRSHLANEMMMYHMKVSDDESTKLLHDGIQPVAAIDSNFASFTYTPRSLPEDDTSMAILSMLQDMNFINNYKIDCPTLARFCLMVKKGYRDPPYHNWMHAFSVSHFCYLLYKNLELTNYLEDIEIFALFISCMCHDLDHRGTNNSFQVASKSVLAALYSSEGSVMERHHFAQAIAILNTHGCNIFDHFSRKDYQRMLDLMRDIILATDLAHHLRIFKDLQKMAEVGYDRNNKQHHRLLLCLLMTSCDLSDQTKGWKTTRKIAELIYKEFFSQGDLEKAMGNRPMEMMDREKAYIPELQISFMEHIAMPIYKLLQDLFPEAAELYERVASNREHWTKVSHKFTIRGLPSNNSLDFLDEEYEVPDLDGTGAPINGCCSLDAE

For `COc1ccc(Cc2nc(C(=O)N[C@@H](c3ccc(S(F)(F)(F)(F)F)cc3)C(C)C)cc(=O)[nH]2)cc1` [Example 471, 2-(4-methoxybenzyl)-N-[(1R)-2-methyl-1-[4-(pentafluoro-λ^6-sulfanyl)phenyl]propyl}-6-oxo-1,6-dihydropyrimidine-4-carboxamide], the inhibition constant Ki in assay [1] (setting [3]) and in assay [2] (setting [4]) was 1.5 nM each time.
Turning to `CC(C)(C)[C@@H](NC(=O)c1cc(=O)[nH]c(C2CC2)n1)c1ccc(C2CC2)cc1` [Example 447, 2-cyclopropyl-N-[(1R)-1-(4-cyclopropylphenyl)-2,2-dimethylpropyl]-6-oxo-1,6-dihydropyrimidine-4-carboxamide], the inhibition constant Ki turned out to be 1.3 nM in assay [1] (setting [3]) and 1.4 nM in assay [2] (setting [4]).
Regarding `O=C(NC1(c2ccc(OC(F)(F)F)cc2)CCC1)c1cc(=O)[nH]c(-c2ccccc2)n1` [Example 282], the results for the inhibitory constant (Ki) in assay [1] (setting [5]) and in assay [2] (setting [6]) were 124 nM and 61 nM, respectively.
For the molecule `C[C@@H](NC(=O)c1cc(=O)[nH]c(-c2ccccc2)n1)c1ccc(C(F)(F)F)c(F)c1` [Example 148, N-{(1R)-1-[3-fluoro-4-(trifluoromethyl)phenyl]ethyl}-6-oxo-2-phenyl-1,6-dihydropyrimidine-4-carboxamide], the inhibition constant Ki amounted to 5.2 nM in assay [1] (setting [5]) and 2.6 nM in assay [2] (setting [6]).
`COc1ccc(Cc2nc(C(=O)N[C@@H](c3ccc(C(F)(F)F)cc3)C(C)C)cc(=O)[nH]2)cc1F` [Example 516, 2-(3-fluoro-4-methoxybenzyl)-N-{(1R)-2-methyl-1-[4-(trifluoromethyl)phenyl]propyl}-6-oxo-1,6-dihydropyrimidine-4-carboxamide]: the results for the Ki in assay [1] (setting [3]) and in assay [2] (setting [4]) were 1.6 nM and 1.5 nM, respectively.
Consider `CCc1nc(C(=O)N[C@H](C)c2ccc(C(F)(F)F)cc2)cc(=O)[nH]1` [Example 134, 2-ethyl-6-oxo-N-{(1R)-1-[4-(trifluoromethyl)phenyl]ethyl}-1,6-dihydropyrimidine-4-carboxamide], for which the Ki stood at 54 nM in assay [1] (setting [5]), 43 nM in assay [2] (setting [6]) and 38 nM in assay [2] (setting [4]).
On to `C[C@@H](NC(=O)c1cc(=O)[nH]c(C2CC2)n1)c1ccc(CC(F)(F)F)cc1` [Example 217, 2-cyclopropyl-6-oxo-N-{(1R)-1-[4-(2,2,2-trifluoroethyl)phenyl]ethyl}-1,6-dihydropyrimidine-4-carboxamide], for which the results for the Ki in assay [1] (setting [5]) and in assay [2] (setting [6]) were 29 nM and 14 nM, respectively.
`CC(NC(=O)c1cc(=O)[nH]c(-c2ccccc2)n1)c1ccc(C(C)(C)C)cc1` (stereo not drawn) [Example 391, N-[1-(4-tert-butylphenyl)ethyl]-6-oxo-2-phenyl-1,6-dihydropyrimidine-4-carboxamide]: the inhibition constant Ki in assay [1] (setting [3]) is 65 nM; in assay [2] (setting [4]), 40 nM.
Turning to `Cc1nc(C(=O)N[C@@H](c2ccc(C3CC3)cc2)C(C)(C)C)cc(=O)[nH]1` [Example 63, (R)-N-(1-(4-cyclopropylphenyl)-2,2-dimethylpropyl)-2-methyl-6-oxo-1,6-dihydropyrimidine-4-carboxamide], the Ki in assay [1] (setting [3]) is 1.9 nM; in assay [2] (setting [4]), 2 nM.
For `Cc1nc(C(=O)NC(C#N)c2ccc(C(F)(F)F)cc2)cc(=O)[nH]1` (stereo not drawn) [Example 33, N-{cyano[4-(trifluoromethyl)phenyl]methyl}-2-methyl-6-oxo-1,6-dihydropyrimidine-4-carboxamide], the figures for the Ki in assay [1] (setting [5]) and in assay [2] (setting [6]) were 802 nM and 656 nM, respectively.
On the same counts, the results for `CC(C)(NC(=O)c1cc(=O)[nH]c(-c2ccccc2)n1)c1ccc(OC(F)(F)F)cc1` [Example 281, N-{1-methyl-1-[4-(trifluoromethoxy)phenyl]ethyl}-6-oxo-2-phenyl-1,6-dihydropyrimidine-4-carboxamide] are 133 nM and 82 nM.
Turning to `Cc1nc(C(=O)N[C@@H](c2ccc(S(F)(F)(F)(F)F)cc2)C(C)(C)C)cc(=O)[nH]1` [Example 618, N-{(1R)-2,2-dimethyl-1-[4-(pentafluoro-λ^6-sulfanyl)phenyl]propyl}-2-methyl-6-oxo-1,6-dihydropyrimidine-4-carboxamide], the Ki in assay [1] (setting [3]) and in assay [2] (setting [4]) was 2 nM each time.
On to `O=C(NCc1ccc(S(F)(F)(F)(F)F)cc1)c1cc(=O)[nH]c(-c2ccccc2)n1` [Example 377, 6-oxo-N-[4-(pentafluoro-λ^6-sulfanyl)benzyl]-2-phenyl-1,6-dihydropyrimidine-4-carboxamide], for which the Ki in assay [1] (setting [5]) came to 28 nM; in assay [2] (setting [4]), 58 nM.
Turning to `CC(C)(NC(=O)c1cc(=O)[nH]c(-c2ccccc2)n1)c1ccc(OC(F)(F)F)c(F)c1` [Example 161, N-{1-[3-fluoro-4-(trifluoromethoxy)phenyl]-1-methylethyl}-6-oxo-2-phenyl-1,6-dihydropyrimidine-4-carboxamide], the Ki in assay [1] (setting [5]) amounted to 88 nM; in assay [2] (setting [6]), 60 nM.
Consider `C[C@@H](NC(=O)c1cc(=O)[nH]c(-c2ccccc2)n1)c1ccc(S(F)(F)(F)(F)F)cc1` [Example 401, 6-oxo-N-{(1R)-1-[4-(pentafluoro-λ^6-sulfanyl)phenyl]ethyl}-2-phenyl-1,6-dihydropyrimidine-4-carboxamide], for which the Ki worked out at 5.2 nM in assay [1] (setting [3]) and 5.8 nM in assay [2] (setting [4]).
Take `O=C(NC1(c2ccc(C(F)(F)F)c(F)c2)CC1)c1cc(=O)[nH]c(-c2ncccn2)n1` [Example 76, N-{1-[3-fluoro-4-(trifluoromethyl)phenyl]cyclopropyl}-6-oxo-1,6-dihydro-2,2′-bipyrimidine-4-carboxamide]: the Ki in assay [1] (setting [5]) stood at 17 nM; in assay [1] (setting [3]), 18 nM; in assay [2] (setting [4]), 21 nM.
Consider `C[C@@H](O)[C@@H](NC(=O)c1cc(=O)[nH]c(-c2ccccc2)n1)c1ccc(C(F)(F)F)cc1` [Example 392, N-{(1S,2R)-2-hydroxy-1-[4-(trifluoromethyl)phenyl]propyl}-6-oxo-2-phenyl-1,6-dihydropyrimidine-4-carboxamide], for which the Ki in assay [1] (setting [3]) is 5.5 nM; in assay [2] (setting [4]) it was 3.3 nM.
Consider `Cc1nc(C(=O)N[C@H](C)c2ccc(C3CC3)cc2)cc(=O)[nH]1` [Example 258, N-[(1R)-1-(4-cyclopropylphenyl)ethyl]-2-methyl-6-oxo-1,6-dihydropyrimidine-4-carboxamide], for which the figures for the inhibition constant Ki in assay [1] (setting [5]), in assay [1] (setting [3]) and in assay [2] (setting [4]) were 19 nM, 41 nM and 39 nM, respectively.
For `CC[C@@H](NC(=O)c1cc(=O)[nH]c(-c2ncccn2)n1)c1ccc(SC(F)(F)F)c(F)c1` [Example 263, N-[(1R)-1-{3-fluoro-4-[(trifluoromethyl)sulfanyl]phenyl}propyl]-6-oxo-1,6-dihydro-2,2′-bipyrimidine-4-carboxamide], the Ki in assay [1] (setting [5]) was 1.5 nM; in assay [1] (setting [3]), 1.9 nM; in assay [2] (setting [4]), 2.1 nM.
In the case of `Cc1nc(C(=O)N[C@@H](c2ccc(C(F)(F)F)cc2)C2CC2)cc(=O)[nH]1` [Example 69, N-{(R)-cyclopropyl[4-(trifluoromethyl)phenyl]methyl}-2-methyl-6-oxo-1,6-dihydropyrimidine-4-carboxamide], the Ki in assay [1] (setting [5]) was determined as 23 nM; in assay [2] (setting [6]) it was 18 nM.
Consider `CC(C)(C)[C@@H](NC(=O)c1cc(=O)[nH]c(-c2ncccn2)n1)c1ccc(C2CC2)c(F)c1` [Example 451, N-[(1R)-1-(4-cyclopropyl-3-fluorophenyl)-2,2-dimethylpropyl]-6-oxo-1,6-dihydro-2,2′-bipyrimidine-4-carboxamide], for which the Ki in assay [1] (setting [3]) was determined as 6.7 nM; in assay [2] (setting [4]), 4.8 nM.
As to `O=C(NC1(c2ccc(OC(F)(F)F)c(F)c2)CC1)c1cc(=O)[nH]c(-c2ccccc2)n1` [Example 157, N-{1-[3-fluoro-4-(trifluoromethoxy)phenyl]cyclopropyl}-6-oxo-2-phenyl-1,6-dihydropyrimidine-4-carboxamide], the Ki was determined as 4.8 nM in assay [1] (setting [5]) and 3.1 nM in assay [2] (setting [6]).
As for `O=C(NC1(c2ccc(C(F)(F)F)c(F)c2)CC1)c1cc(=O)[nH]c(C2CC2)n1` [Example 202, 2-cyclopropyl-N-{1-[3-fluoro-4-(trifluoromethyl)phenyl]cyclopropyl}-6-oxo-1,6-dihydropyrimidine-4-carboxamide], the results for the inhibitory constant (Ki) in assay [1] (setting [5]) and in assay [2] (setting [6]) were 7.3 nM and 3 nM, respectively.
Turning to `C[C@@H](NC(=O)c1cc(=O)[nH]c(C2CC2)n1)c1ccc(C2CC2)cc1` [Example 256, 2-cyclopropyl-N-[(1R)-1-(4-cyclopropylphenyl)ethyl]-6-oxo-1,6-dihydropyrimidine-4-carboxamide], the inhibition constant Ki is 13 nM in assay [1] (setting [5]), 21 nM in assay [1] (setting [3]), roughly 12 nM in assay [2] (setting [6]) and 20 nM in assay [2] (setting [4]).
With `COc1ccc(C(C)(C)c2nc(C(=O)N[C@@H](c3ccc(C(F)(F)F)c(F)c3)C(C)(C)C)cc(=O)[nH]2)cc1` [Example 489, N-{(1R)-1-[3-fluoro-4-(trifluoromethyl)phenyl]-2,2-dimethylpropyl}-2-[1-(4-methoxyphenyl)-1-methylethyl]-6-oxo-1,6-dihydropyrimidine-4-carboxamide], the results for the Ki in assay [1] (setting [3]) and in assay [2] (setting [4]) were 69 nM and 61 nM, respectively.
For `COc1ccc(Cc2nc(C(=O)N[C@@H](c3ccc(OC(F)(F)F)cc3)C(C)(C)C)cc(=O)[nH]2)cc1F` [Example 509, N-{(1R)-2,2-dimethyl-1-[4-(trifluoromethoxy)phenyl]propyl}-2-(3-fluoro-4-methoxybenzyl)-6-oxo-1,6-dihydropyrimidine-4-carboxamide] the same measures were 0.88 nM and 0.99 nM.
In the case of `COc1ccc(Cc2nc(C(=O)N[C@@H](c3ccc(C(F)(F)F)c(F)c3)C3CC3)cc(=O)[nH]2)cc1F` [Example 522, N-{(R)-cyclopropyl[3-fluoro-4-(trifluoromethyl)phenyl]methyl}-2-(3-fluoro-4-methoxybenzyl)-6-oxo-1,6-dihydropyrimidine-4-carboxamide], the figures for the inhibitory constant (Ki) in assay [1] (setting [3]) and in assay [2] (setting [4]) were 2.9 nM and 2.6 nM, respectively.
